# Source: patent US20210393724A1, “MEDICINE FOR TREATMENT OF PSORIASIS AND PRODUCTION METHOD THEREOF” (YEDITEPE UNIVERSITESI, priority 2018, published 2021)
# Tested on: IMQ-induced psoriasis inflammation
# Experiment: IMQ-induced psoriasis mouse model: PASI scoring, ear thickness, spleen/body weight
# Assay type: in vivo, BALB/c mice
# Details: MTX 1 mg/kg orally per day
# Experimental: The cream named Aldara (Meda Pharma, 3M Health Care) containing 5% Imiquimib (IMQ) was administered once a day for 6 days on the shaved backs and right ears of 8-11 weeks old adult male BALB/c mice such that a total of 62.5 mg cream is applied per day per animal thereby psoriasis inflammation was produced in the animal model. Vaseline was applied to the shaved area of the animals in the control group. The positive control group received 1 mg/kg Mtx (Methotrexate) orally per day. The drug was administered orally at a dose of 5 mg/kg once a day during the experiment. Administration of the drug to the animals in the group where the semi-therapeutic effect of the drug was to be tested was initiated 1 day after the onset of induction of psoriasis with IMQ, and continued until the end of the experiment period. Body weight, and redness, flaking and thickening on the skin were daily measured and scored according to the Psoriasis Area Severity. Index (PASI) to monitor the general health status of the animals and the induction of psoriasis with IMQ. As required by the model, thickening of the right ear skin was also recorded on a regular basis since the day the experiments began. At the end of the application, animals were anesthetized by isoflurane and then euthanized by cervical dislocation. The size and weight of the spleen tissues were recorded.
compound,measurement,setting,value
"CN(Cc1cnc2nc(N)nc(N)c2n1)c1ccc(C(=O)N[C@@H](CCC(=O)O)C(=O)O)cc1 [MTX, Methotrexate]",plaque formation (scaling) PASI score of IMQ-administered region on the back,as of the 4th day,decreased
same,total PASI score,as of the 4th day,Decrease
same,thickness PASI score of IMQ-administered region on the back,as of the 5th day,decreased
